Experimental data as given in ChEMBL document CHEMBL4476883, “Hydroxy formamide derivatives and their use” (2017).
pIC50: −log10 of the molar value.

What was measured:
[1] = molecular target: T1, Bone morphogenetic protein 1 (Homo sapiens, UniProt P13497); assay: Inhibition of C-terminal FLAG-6x-His epitope tagged and N-terminal human RAGE signal sequence tagged human BMP1 (23 to 721 amino acids) expressed in CHO-E1A cells pre-incubated for 10 mins before promyostatin peptide substrate addition and measured after 60 mins using 0.5 nM BMP1 by FRET based assay; assay type: cell-based
T1 sequence (P13497 whole entry): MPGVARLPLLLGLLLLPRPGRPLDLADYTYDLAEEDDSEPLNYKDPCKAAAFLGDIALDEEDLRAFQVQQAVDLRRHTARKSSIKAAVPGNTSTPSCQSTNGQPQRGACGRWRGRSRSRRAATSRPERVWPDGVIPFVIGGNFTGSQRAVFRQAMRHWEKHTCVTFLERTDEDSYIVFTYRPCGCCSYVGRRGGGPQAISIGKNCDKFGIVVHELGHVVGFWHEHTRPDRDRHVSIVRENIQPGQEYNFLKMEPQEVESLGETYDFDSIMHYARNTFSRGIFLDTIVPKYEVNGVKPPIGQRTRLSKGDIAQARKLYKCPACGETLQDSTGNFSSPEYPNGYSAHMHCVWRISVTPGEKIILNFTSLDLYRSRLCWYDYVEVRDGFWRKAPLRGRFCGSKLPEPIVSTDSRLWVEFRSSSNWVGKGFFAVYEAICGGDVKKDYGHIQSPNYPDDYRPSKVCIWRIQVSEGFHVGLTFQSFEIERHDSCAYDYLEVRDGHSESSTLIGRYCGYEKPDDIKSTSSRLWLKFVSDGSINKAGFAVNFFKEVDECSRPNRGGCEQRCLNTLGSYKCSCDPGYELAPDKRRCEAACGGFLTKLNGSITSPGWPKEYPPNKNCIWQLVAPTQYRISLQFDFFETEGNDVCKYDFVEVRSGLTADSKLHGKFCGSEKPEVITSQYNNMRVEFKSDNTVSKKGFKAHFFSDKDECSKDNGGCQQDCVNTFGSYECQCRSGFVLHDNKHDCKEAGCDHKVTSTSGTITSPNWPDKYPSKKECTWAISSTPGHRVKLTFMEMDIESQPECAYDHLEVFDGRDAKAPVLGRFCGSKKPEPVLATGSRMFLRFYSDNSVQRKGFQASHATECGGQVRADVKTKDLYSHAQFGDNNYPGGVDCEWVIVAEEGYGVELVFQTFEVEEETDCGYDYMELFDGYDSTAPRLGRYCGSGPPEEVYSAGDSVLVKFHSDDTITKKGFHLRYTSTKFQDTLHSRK

[2] = molecular target: T1, Bone morphogenetic protein 1; assay: Inhibition of C-terminal FLAG-6x-His epitope tagged and N-terminal human RAGE signal sequence tagged human BMP1 (23 to 721 amino acids) expressed in CHO-E1A cells pre-incubated for 10 mins before promyostatin peptide substrate addition and measured after 30 mins using 50 nM BMP1 by FRET based assay; assay type: cell-based
Tolloid-like protein 1 = Tolloid-like protein 1 (Homo sapiens, UniProt O43897, I156V/N221S/V284A); assay: Inhibition of recombinant human TLL1 I156V/N221S/V284A mutant expressed in CHOE1A cells pre-incubated for 10 mins before promyostatin peptide substrate addition and measured after 60 mins by FRET based assay; assay type: cell-based
Tolloid-like protein 2 = molecular target: T2, Tolloid-like protein 2 (Homo sapiens, UniProt Q9Y6L7); assay: Inhibition of C-terminal Avi-6x-His epitope tagged and N-terminal human RAGE signal sequence tagged recombinant human TLL2 (26 to 1015 amino acids) expressed in CHOE1A cells incubated for 60 mins with promyostatin peptide substrate by FRET based assay; assay type: cell-based
T2 sequence (Q9Y6L7 whole entry): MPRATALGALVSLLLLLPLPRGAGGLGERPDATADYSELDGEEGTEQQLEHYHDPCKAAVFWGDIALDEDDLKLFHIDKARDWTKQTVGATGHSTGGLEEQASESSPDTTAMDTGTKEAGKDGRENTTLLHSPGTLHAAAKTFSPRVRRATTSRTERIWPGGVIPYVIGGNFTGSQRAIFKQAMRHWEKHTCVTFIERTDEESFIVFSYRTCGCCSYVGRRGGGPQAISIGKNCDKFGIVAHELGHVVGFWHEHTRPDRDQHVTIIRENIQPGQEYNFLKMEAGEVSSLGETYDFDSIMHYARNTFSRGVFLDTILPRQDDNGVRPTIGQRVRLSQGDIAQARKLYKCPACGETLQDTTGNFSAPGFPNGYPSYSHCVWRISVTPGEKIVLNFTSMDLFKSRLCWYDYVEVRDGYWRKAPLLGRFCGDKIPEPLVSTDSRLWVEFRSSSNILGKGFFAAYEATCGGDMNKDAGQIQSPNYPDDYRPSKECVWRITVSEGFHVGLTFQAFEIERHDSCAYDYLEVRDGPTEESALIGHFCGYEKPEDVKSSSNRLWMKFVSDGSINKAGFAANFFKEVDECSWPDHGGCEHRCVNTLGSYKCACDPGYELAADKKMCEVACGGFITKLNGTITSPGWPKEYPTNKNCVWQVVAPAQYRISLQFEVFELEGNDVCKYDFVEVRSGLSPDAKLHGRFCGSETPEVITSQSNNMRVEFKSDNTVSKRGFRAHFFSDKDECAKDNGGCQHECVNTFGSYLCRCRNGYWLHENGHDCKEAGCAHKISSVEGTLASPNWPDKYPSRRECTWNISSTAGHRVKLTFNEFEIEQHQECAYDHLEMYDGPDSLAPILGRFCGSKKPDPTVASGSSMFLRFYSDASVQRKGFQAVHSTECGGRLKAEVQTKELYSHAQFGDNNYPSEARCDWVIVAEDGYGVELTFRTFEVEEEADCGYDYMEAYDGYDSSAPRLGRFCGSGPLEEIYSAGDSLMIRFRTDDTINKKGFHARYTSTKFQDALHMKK

[3] = Reduction in PICP levels in human cardiac fibroblasts incubated for 24 to 48 hrs by ELISA; assay type: functional

Chain of Tolloid-like protein 1 (O43897 148-1013 I156V/N221S/V284A limits assumed): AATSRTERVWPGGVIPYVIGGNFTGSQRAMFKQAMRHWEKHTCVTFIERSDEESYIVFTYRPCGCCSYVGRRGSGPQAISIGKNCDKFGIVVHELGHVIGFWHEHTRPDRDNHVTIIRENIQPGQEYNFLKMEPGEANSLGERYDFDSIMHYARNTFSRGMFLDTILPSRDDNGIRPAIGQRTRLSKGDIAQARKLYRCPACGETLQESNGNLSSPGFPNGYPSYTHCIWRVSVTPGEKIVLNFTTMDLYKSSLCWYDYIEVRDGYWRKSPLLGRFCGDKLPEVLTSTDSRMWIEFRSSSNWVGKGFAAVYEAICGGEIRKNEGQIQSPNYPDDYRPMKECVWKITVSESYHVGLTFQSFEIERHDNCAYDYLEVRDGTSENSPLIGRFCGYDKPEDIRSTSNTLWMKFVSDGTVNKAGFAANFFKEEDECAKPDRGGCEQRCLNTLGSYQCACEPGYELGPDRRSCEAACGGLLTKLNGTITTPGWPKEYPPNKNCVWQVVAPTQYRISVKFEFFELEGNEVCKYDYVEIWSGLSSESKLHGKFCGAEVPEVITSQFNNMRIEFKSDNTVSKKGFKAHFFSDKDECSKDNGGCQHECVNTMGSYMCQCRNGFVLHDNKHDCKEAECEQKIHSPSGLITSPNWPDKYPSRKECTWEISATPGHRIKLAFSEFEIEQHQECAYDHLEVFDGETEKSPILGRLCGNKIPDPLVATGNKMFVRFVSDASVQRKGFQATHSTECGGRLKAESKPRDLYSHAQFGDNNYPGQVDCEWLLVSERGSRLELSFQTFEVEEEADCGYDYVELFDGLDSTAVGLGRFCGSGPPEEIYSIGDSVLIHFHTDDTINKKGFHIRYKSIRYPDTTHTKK

pIC50 [1] | pIC50 [2] | pIC50 (Tolloid-like protein 1) | pIC50 (Tolloid-like protein 2) | Structure (SMILES) | pIC50 [3]
> 6.90 | > 6.60 | > 6.40 | > 6.20 | CCCCC[C@H](CN(O)C=O)C(=O)NCNC(=O)c1cccc(-c2ccccc2F)c1 | > 4.70
> 6.90 | > 6.60 | > 6.40 | > 6.20 | CCOc1cccc(-c2cccc(C(=O)NCNC(=O)[C@H](CC3CCCC3)CN(O)C=O)c2)c1 | > 4.70
> 6.90 | > 6.60 | > 6.40 | > 6.20 | CCCCC[C@H](CN(O)C=O)C(=O)NCNC(=O)c1cccc(-c2ncc(C)o2)c1 | > 4.70
> 6.90 | > 6.60 | > 6.40 | > 6.20 | CCCCC[C@@H](C(=O)NCNC(=O)c1cccc(-c2ccc(C(=O)N[C@@H](CC(=O)O)C(=O)O)c(OCC)c2)c1)[C@@H](CC)N(O)C=O | > 4.70
> 6.90 | > 6.60 | > 6.40 | > 6.20 | CCCCC[C@H](CN(O)C=O)C(=O)NCNC(=O)c1cccc(-c2nc(C)c(C)o2)c1 | > 4.70
> 6.90 | > 6.60 | > 6.40 | > 6.20 | CCCCC[C@@H](C(=O)NCNC(=O)c1cccc(-c2ccc(C(=O)N[C@@H](CC(=O)O)C(=O)O)c(OCC(=O)O)c2)c1)[C@@H](CC)N(O)C=O | > 4.70
> 6.90 | > 6.60 | > 6.40 | > 6.20 | O=CN(O)C[C@@H](CC1CCCC1)C(=O)NCNC(=O)c1cccc(Oc2ccccc2)c1 | > 4.70
> 6.90 | > 6.60 | > 6.40 | > 6.20 | CCc1cccc(-c2cccc(C(=O)NCNC(=O)[C@H](CC3CCCC3)CN(O)C=O)c2)c1 | > 4.70
> 6.90 | > 6.60 | > 6.40 | > 6.20 | CCCCC[C@@H](C(=O)NCNC(=O)c1cccc(-c2ccc(C(=O)O)c(OCC)c2)c1)[C@@H](CC)N(O)C=O | > 4.70
> 6.90 | > 6.60 | > 6.40 | > 6.20 | CCCCC[C@@H](C(=O)NCNC(=O)c1cccc(-c2ccc(C3(C(=O)O)CC3)cc2)n1)[C@@H](CC)N(O)C=O | > 4.70
> 6.90 | > 6.60 | > 6.40 | > 6.20 | CCCCC[C@H](CN(O)C=O)C(=O)NCNC(=O)c1cccc(Oc2ccc(OC)nc2)c1 | > 4.70
> 6.90 | > 6.60 | > 6.40 | > 6.20 | COc1cncc(-c2cccc(C(=O)NCNC(=O)[C@H](CC3CCCC3)CN(O)C=O)c2)c1 | > 4.70
> 6.90 | > 6.60 | > 6.40 | > 6.20 | CCCCC[C@H](CN(O)C=O)C(=O)NCNC(=O)c1cccc(-c2cc(OCC)cc(C(=O)O)c2)n1 | > 4.70

Second part, the compound before the results:

Structure (SMILES) | pIC50 [1] | pIC50 [2] | pIC50 (Tolloid-like protein 1) | pIC50 (Tolloid-like protein 2) | pIC50 [3]
CCCCC[C@@H](C(=O)NCNC(=O)c1cccc(-c2ccc(C(=O)O)c(OCC)c2)n1)[C@@H](CC)N(O)C=O | > 6.90 | > 6.60 | > 6.40 | > 6.20 | > 4.70
O=CN(O)C[C@@H](CCc1ccccc1)C(=O)NCNC(=O)c1cccc(-c2cccc(B(O)O)c2)c1 | > 6.90 | > 6.60 | > 6.40 | > 6.20 | > 4.70
CCCCC[C@@H](C(=O)NCNC(=O)c1cccc(-c2ccc(C(=O)O)cc2C)n1)[C@@H](CC)N(O)C=O | > 6.90 | > 6.60 | > 6.40 | > 6.20 | > 4.70
CCCCC[C@@H](C(=O)NCNC(=O)c1cccc(-c2cc(OCC)cc(P(=O)(O)O)c2)c1)[C@@H](CC)N(O)C=O | > 6.90 | > 6.60 | > 6.40 | > 6.20 | > 4.70
COc1cc(-c2cccc(C(=O)NCNC(=O)[C@H](CCc3ccccc3)CN(O)C=O)c2)c(OC)nn1 | > 6.90 | > 6.60 | > 6.40 | > 6.20 | > 4.70
CCCCC[C@H](CN(O)C=O)C(=O)NCNC(=O)c1ccnc(-c2ccccc2)n1 | > 6.90 | > 6.60 | > 6.40 | > 6.20 | > 4.70
CCCCC[C@H](CN(O)C=O)C(=O)NCNC(=O)c1cccc(-c2ccc(N(C)C)cc2)c1 | > 6.90 | > 6.60 | > 6.40 | > 6.20 | > 4.70
CCCCC[C@@H](C(=O)NCNC(=O)c1cccc(-c2ccc(C(=O)O)c(C(=O)O)c2)n1)[C@@H](CC)N(O)C=O | > 6.90 | > 6.60 | > 6.40 | > 6.20 | > 4.70
CCCCC[C@H](CN(O)C=O)C(=O)NCNC(=O)c1cccc(-c2cccc(OC)c2F)c1 | > 6.90 | > 6.60 | > 6.40 | > 6.20 | > 4.70
COc1cccc(-c2cccc(C(=O)NCNC(=O)[C@H](CC3CCCC3)CN(O)C=O)c2)c1 | > 6.90 | > 6.60 | > 6.40 | > 6.20 | > 4.70
CCCCC[C@H](CN(O)C=O)C(=O)NCNC(=O)c1cccc(-c2cccnc2)n1 | > 6.90 | > 6.60 | > 6.40 | > 6.20 | > 4.70
CCCCC[C@H](CN(O)C=O)C(=O)NCNC(=O)c1cccc(-c2cccc(OC)c2F)n1 | > 6.90 | > 6.60 | > 6.40 | > 6.20 | > 4.70
CCCCC[C@@H](C(=O)NCNC(=O)c1cccc(-c2ccc(C(=O)N[C@@H](CCC(=O)O)C(=O)O)c(OCC)c2)n1)[C@@H](CC)N(O)C=O | > 6.90 | > 6.60 | > 6.40 | > 6.20 | > 4.70
CCCCC[C@H](CN(O)C=O)C(=O)NCNC(=O)c1cccc(-c2cccc(OCC(F)(F)F)c2)c1 | > 6.90 | > 6.60 | > 6.40 | > 6.20 | > 4.70
CCCCC[C@H](CN(O)C=O)C(=O)NCNC(=O)c1cccc(-c2cccc(C(=O)O)c2)c1 | > 6.90 | > 6.60 | > 6.40 | > 6.20 | > 4.70
O=CN(O)C[C@@H](CC1CCCC1)C(=O)NCNC(=O)c1cccc(-c2cccc(C(F)(F)F)c2)c1 | > 6.90 | > 6.60 | > 6.40 | > 6.20 | > 4.70
